Results on 12 compounds are retold here after patent publication US20240279240A1, “HETEROCYCLIC DERIVATIVES AS JANUS KINASE INHIBITORS” (CHIESI FARMACEUTICI S.P.A., priority 2021, published 2024).

A value given as a limit tells only on which side of the number the result lay.

Assay [1] has as its target JAK 1 (Homo sapiens, UniProt P23458). In words: Biochemical potency on JAK1, TR-FRET LANCE Ultra kinase assay (examples 1-99). As to conditions: ATP at Km (20 μM), read-out: JAK1 inhibitory activity (pIC50 class) (converted). A digest of the protocol:
(§1)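 Each JAK isoform (human) was tested separately in a peptide-phosphorylation TR-FRET assay at ATP ≈ Km. Eleven compound concentrations, top 20 μM, 5-fold spacing. Values are IC50s from normalized-response curve fits.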

Assay [2] concerns the target T1, JAK 3 (Homo sapiens, UniProt P52333).
T1 sequence (P52333 1-1124): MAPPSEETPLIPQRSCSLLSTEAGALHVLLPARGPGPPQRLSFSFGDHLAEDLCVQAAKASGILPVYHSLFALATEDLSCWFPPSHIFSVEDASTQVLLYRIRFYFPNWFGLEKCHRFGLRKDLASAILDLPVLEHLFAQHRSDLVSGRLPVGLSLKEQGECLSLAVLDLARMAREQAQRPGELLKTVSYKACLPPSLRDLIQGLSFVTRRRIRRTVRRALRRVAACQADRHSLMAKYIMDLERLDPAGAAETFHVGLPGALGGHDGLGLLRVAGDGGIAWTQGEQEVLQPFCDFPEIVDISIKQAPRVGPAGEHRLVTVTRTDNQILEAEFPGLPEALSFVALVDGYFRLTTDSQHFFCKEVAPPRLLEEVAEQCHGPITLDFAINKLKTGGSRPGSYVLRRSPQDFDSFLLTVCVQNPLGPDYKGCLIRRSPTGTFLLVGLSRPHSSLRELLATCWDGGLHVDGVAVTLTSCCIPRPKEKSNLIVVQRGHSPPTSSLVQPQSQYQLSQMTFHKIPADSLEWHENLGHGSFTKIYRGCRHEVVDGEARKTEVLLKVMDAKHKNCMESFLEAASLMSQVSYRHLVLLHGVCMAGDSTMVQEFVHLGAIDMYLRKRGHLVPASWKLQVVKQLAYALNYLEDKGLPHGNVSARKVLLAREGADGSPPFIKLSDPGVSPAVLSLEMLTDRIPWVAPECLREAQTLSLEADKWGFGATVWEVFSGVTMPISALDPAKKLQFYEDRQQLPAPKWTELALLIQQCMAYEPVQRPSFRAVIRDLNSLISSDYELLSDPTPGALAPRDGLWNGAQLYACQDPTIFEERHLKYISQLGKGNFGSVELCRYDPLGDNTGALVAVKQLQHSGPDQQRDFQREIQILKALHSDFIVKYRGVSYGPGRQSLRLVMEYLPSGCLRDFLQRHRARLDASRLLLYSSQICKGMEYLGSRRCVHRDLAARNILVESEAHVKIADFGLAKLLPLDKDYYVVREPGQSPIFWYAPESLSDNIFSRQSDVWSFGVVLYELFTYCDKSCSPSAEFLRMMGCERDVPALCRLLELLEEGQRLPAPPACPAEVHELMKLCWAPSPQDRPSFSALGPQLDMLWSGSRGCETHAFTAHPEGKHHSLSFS
In words: Biochemical potency on JAK3, TR-FRET LANCE Ultra kinase assay (examples 1-99). As to conditions: ATP at Km (0.2 μM), read-out: JAK3 inhibitory activity (pIC50 class) (converted). An outline of the steps: as §1

Assay [3] concerns the target TYK2 (Homo sapiens, UniProt P29597). Description: Biochemical potency on Tyk2, TR-FRET LANCE Ultra kinase assay (examples 1-99). The note with it: ATP at Km (12 μM), read-out: Tyk2 inhibitory activity (pIC50 class) (converted). A digest of the protocol: as §1
Assay [4] deals with JAK 2 (Homo sapiens, UniProt O60674). In words: Biochemical potency on JAK2, TR-FRET LANCE Ultra kinase assay (examples 1-99). As to conditions: ATP at Km (0.7 μM), read-out: JAK2 inhibitory activity (pIC50 class) (converted). An outline of the steps: as §1
JAK 2, sequence (O60674 whole entry): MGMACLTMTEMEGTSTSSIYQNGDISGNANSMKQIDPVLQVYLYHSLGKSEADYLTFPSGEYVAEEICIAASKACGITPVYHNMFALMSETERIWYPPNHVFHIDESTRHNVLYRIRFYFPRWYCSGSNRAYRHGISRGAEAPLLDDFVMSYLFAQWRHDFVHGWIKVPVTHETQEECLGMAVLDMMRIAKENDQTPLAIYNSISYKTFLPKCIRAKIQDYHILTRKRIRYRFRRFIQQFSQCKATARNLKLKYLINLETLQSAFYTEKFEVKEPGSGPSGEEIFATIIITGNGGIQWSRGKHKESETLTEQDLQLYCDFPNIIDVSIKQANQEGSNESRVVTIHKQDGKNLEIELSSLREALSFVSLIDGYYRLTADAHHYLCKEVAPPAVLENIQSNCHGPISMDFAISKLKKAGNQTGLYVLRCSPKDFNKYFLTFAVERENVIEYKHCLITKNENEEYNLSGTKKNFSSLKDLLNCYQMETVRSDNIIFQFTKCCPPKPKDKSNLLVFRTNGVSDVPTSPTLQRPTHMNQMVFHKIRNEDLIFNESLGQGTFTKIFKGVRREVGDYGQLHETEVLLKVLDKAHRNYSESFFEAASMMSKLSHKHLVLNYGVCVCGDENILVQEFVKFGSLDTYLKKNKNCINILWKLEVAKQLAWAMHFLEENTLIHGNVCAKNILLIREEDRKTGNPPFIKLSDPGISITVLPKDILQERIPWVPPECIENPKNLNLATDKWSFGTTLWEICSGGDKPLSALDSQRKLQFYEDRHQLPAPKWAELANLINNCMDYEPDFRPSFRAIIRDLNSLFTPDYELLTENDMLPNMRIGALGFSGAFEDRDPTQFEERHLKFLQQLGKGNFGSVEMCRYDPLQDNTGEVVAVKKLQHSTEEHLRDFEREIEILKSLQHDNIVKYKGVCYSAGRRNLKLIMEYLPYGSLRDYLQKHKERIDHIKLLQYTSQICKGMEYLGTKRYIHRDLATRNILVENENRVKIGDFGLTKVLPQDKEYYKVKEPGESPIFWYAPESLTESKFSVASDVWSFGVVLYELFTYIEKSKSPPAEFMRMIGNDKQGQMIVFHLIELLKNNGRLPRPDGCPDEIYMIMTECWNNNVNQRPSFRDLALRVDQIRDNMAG

TYK2, sequence (P29597 whole entry): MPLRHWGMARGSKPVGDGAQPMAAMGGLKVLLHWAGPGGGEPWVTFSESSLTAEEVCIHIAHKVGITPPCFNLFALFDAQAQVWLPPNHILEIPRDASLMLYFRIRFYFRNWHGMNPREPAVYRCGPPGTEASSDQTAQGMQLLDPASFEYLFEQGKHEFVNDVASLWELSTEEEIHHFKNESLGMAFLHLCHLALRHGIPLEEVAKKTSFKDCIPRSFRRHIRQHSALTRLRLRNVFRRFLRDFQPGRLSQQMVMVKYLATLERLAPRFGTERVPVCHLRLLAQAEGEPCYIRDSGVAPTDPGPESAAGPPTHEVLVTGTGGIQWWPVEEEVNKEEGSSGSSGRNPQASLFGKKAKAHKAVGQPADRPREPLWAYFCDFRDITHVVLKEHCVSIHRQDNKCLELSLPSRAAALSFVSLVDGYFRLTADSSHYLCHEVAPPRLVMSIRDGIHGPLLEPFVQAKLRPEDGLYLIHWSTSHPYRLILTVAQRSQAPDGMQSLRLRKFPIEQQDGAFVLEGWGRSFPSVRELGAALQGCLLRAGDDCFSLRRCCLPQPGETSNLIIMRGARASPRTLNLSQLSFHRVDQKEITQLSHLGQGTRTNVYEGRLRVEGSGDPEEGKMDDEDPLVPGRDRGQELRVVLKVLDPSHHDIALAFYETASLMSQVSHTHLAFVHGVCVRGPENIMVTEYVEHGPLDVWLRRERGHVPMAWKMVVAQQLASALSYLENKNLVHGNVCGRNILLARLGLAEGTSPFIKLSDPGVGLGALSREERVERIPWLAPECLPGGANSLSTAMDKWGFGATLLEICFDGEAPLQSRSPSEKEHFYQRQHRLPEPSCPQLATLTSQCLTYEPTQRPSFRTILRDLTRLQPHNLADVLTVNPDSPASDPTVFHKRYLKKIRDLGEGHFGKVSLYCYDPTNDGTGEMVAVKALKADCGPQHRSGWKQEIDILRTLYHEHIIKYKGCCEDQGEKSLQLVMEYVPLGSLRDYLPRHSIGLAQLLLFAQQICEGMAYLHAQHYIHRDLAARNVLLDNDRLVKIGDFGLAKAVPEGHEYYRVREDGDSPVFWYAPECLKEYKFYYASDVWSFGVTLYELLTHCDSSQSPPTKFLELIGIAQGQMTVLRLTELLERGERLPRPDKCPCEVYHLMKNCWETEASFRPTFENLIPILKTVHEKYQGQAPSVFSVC
JAK 1, sequence (P23458 whole entry, canonical isoform): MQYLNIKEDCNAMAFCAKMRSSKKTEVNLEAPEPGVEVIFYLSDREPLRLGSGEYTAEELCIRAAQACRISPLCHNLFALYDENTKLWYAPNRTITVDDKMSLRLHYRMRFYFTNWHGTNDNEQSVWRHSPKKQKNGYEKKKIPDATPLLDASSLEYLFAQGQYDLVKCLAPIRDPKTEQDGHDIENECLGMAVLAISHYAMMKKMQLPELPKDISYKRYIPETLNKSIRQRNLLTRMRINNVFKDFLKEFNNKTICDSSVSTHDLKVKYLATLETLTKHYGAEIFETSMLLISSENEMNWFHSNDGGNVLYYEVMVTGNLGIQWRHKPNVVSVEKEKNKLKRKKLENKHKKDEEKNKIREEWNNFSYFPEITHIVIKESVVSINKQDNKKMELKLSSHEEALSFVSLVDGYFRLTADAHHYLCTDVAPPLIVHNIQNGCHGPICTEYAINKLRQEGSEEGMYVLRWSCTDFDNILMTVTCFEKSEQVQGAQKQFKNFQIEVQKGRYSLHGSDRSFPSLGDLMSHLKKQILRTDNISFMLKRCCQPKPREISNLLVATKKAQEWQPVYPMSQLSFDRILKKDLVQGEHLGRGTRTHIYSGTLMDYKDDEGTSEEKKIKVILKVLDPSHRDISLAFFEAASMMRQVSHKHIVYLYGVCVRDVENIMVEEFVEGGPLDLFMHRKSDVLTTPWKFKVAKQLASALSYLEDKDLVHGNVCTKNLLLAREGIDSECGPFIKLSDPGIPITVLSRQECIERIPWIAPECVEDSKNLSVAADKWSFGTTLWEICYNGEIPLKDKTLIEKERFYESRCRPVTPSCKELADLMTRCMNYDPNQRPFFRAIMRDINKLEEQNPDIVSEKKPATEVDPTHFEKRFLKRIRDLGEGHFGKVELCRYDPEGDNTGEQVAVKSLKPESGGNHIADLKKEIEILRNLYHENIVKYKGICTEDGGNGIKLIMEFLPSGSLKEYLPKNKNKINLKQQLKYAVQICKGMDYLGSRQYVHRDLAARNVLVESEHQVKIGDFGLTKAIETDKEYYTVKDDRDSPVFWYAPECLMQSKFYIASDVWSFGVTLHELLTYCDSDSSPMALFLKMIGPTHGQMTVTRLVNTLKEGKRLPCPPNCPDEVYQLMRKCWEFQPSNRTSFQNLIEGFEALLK

For the compound `COc1cc(O)c(F)cc1-n1nc(C(=O)NCCCN(C)C)c2cnc(-c3cnn4cccnc34)cc21` [Example 88, N-(3-(dimethylamino)propyl)-1-(5-fluoro-4-hydroxy-2-methoxyphenyl)-6-(pyrazolo[1,5-a]pyrimidin-3-yl)-1H-pyrazolo[4,3-c]pyridine-3-carboxamide], the IC50 in assay [1] was at most 5.01 nM; in assay [2] it was 5.01 to 50.1 nM; in assay [3], 5.01 to 50.1 nM; in assay [4], 5.01 to 50.1 nM.
Turning to `CNCc1nn(-c2cc(S(C)(=O)=O)ccc2OC)c2cc(-c3cnn4cccnc34)ncc12` [Example 89, 1-(1-(2-Methoxy-5-(methylsulfonyl)phenyl)-6-(pyrazolo[1,5-a]pyrimidin-3-yl)-1H-pyrazolo[4,3-c]pyridin-3-yl)-N-methylmethanamine], the IC50 is 5.01 to 50.1 nM in assay [1], over 50.1 nM in assay [2], over 50.1 nM in assay [3] and 5.01 to 50.1 nM in assay [4].
`COc1ccc(F)cc1-n1nc(C)c2cnc(Nc3ncc[nH]c3=O)cc21` [Example 90, 3-((1-(5-Fluoro-2-methoxyphenyl)-3-methyl-1H-pyrazolo[4,3-c]pyridin-6-yl)amino)pyrazin-2(1H)-one]: the IC50 in assay [1] is 5.01 to 50.1 nM; in assay [2], at most 5.01 nM; in assay [3] it was 5.01 to 50.1 nM; in assay [4] it was at most 5.01 nM.
On to `COc1ccc(C(F)F)cc1-n1nc(C)c2cnc(Nc3ncc[nH]c3=O)cc21` [Example 91, 3-((1-(5-(difluoromethyl)-2-methoxyphenyl)-3-methyl-1H-pyrazolo[4,3-c]pyridin-6-yl)amino)pyrazin-2(1H)-one], for which the IC50 was 5.01 to 50.1 nM in assay [1], at most 5.01 nM in assay [2], 5.01 to 50.1 nM in assay [3] and at most 5.01 nM in assay [4].
For the compound `COc1ccc(S(=O)(=O)NCCO)cc1-n1nc(C)c2cnc(Nc3ncc[nH]c3=O)cc21` [Example 92, N-(2-hydroxyethyl)-4-methoxy-3-(3-methyl-6-((3-oxo-3,4-dihydropyrazin-2-yl)amino)-1H-pyrazolo[4,3-c]pyridin-1-yl)benzenesulfonamide], the IC50 was 5.01 to 50.1 nM in assay [1], at most 5.01 nM in assay [2], over 50.1 nM in assay [3] and at most 5.01 nM in assay [4].
As to `COCCSc1ccc(OC(F)F)c(-n2nc(C)c3cnc(Nc4ncc[nH]c4=O)cc32)c1` [Example 93, 3-((1-(2-(difluoromethoxy)-5-((2-methoxyethyl)thio)phenyl)-3-methyl-1H-pyrazolo[4,3-c]pyridin-6-yl)amino)pyrazin-2(1H)-one], the IC50 in assay [1] is 5.01 to 50.1 nM; in assay [2], at most 5.01 nM; in assay [3] it was 5.01 to 50.1 nM; in assay [4], at most 5.01 nM.
On to `Cc1nn(-c2cc(S(C)(=O)=O)ccc2OC(F)F)c2cc(Nc3ncc[nH]c3=O)ncc12` [Example 94, 3-((1-(2-(difluoromethoxy)-5-(methylsulfonyl)phenyl)-3-methyl-1H-pyrazolo[4,3-c]pyridin-6-yl)amino)pyrazin-2(1H)-one], for which the IC50 in assay [1] is at most 5.01 nM; in assay [2], at most 5.01 nM; in assay [3], 5.01 to 50.1 nM; in assay [4], at most 5.01 nM.
In the case of `COCCS(=O)(=O)c1ccc(OC(F)F)c(-n2nc(C)c3cnc(Nc4ncc[nH]c4=O)cc32)c1` [Example 95, 3-((1-(2-(difluoromethoxy)-5-((2-methoxyethyl)sulfonyl)phenyl)-3-methyl-1H-pyrazolo[4,3-c]pyridin-6-yl)amino)pyrazin-2(1H)-one], the IC50 in assay [1] was 5.01 to 50.1 nM; in assay [2], at most 5.01 nM; in assay [3] it was 5.01 to 50.1 nM; in assay [4] it was at most 5.01 nM.
Turning to `COc1ccc(F)cc1-n1nc(C(=O)NCCCN(C)C)c2cnc(Nc3ncc[nH]c3=O)cc21` [Example 96, N-(3-(dimethylamino)propyl)-1-(5-fluoro-2-methoxyphenyl)-6-((3-oxo-3,4-dihydropyrazin-2-yl)amino)-1H-pyrazolo[4,3-c]pyridine-3-carboxamide], the IC50 in assay [1], in assay [2], in assay [3] and in assay [4] was 5.01 to 50.1 nM throughout.
As to `COc1ccc(F)cc1-n1nc(NCCCN(C)C)c2cnc(Nc3ncc[nH]c3=O)cc21` [Example 97, 3-((3-((3-(dimethylamino)propyl)amino)-1-(5-fluoro-2-methoxyphenyl)-1H-pyrazolo[4,3-c]pyridin-6-yl)amino)pyrazin-2(1H)-one], the IC50 in assay [1] was 5.01 to 50.1 nM; in assay [2] it was at most 5.01 nM; in assay [3] it was 5.01 to 50.1 nM; in assay [4], at most 5.01 nM.
For the compound `COc1ccc(C(F)F)cc1-n1nc(NCCN(C)C)c2cnc(Nc3ncc[nH]c3=O)cc21` [Example 98, 3-((1-(5-(difluoromethyl)-2-methoxyphenyl)-3-((2-(dimethylamino)ethyl)amino)-1H-pyrazolo[4,3-c]pyridin-6-yl)amino)pyrazin-2(1H)-one], the IC50 in assay [1], in assay [2], in assay [3] and in assay [4] was 5.01 to 50.1 nM throughout.
`Cc1nn(-c2cc(Cl)ccc2OC(F)F)c2cc(Nc3ncc[nH]c3=O)ncc12` [Example 99, 3-((1-(5-chloro-2-(difluoromethoxy)phenyl)-3-methyl-1H-pyrazolo[4,3-c]pyridin-6-yl)amino)pyrazin-2(1H)-one]: the IC50 is at most 5.01 nM in assay [1], at most 5.01 nM in assay [2], 5.01 to 50.1 nM in assay [3] and at most 5.01 nM in assay [4].
